Measurements from ChEMBL document CHEMBL1139320, “PEG-immobilization of cardol and soluble polymer-supported synthesis of some cardol-coumarin derivatives: preliminary evaluation of their inhibitory activity on mushroom tyrosinase” (Bioorg Med Chem Lett, 2009).

Molecular target: T1, Tyrosinase (Agaricus bisporus, UniProt O42713)
T1 sequence (O42713 whole entry): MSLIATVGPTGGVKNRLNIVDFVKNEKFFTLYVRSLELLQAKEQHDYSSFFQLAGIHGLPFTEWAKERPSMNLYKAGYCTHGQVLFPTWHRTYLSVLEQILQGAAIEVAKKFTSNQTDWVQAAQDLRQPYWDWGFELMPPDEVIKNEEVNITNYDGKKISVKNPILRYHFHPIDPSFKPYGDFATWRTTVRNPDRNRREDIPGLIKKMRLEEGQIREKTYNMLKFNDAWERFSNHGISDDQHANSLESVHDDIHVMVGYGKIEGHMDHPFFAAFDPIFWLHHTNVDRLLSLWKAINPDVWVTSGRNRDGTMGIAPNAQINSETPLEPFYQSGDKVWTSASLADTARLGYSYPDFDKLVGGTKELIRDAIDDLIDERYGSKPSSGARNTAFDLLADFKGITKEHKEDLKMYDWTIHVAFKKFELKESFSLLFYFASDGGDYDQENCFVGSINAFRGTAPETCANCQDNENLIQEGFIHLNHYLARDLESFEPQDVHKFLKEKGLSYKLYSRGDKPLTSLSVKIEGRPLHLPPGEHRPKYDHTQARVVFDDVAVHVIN
Description: Inhibition of mushroom tyrosine kinase assessed as oxidation of 0.25 mM L-3,4-dihydroxyphenylalanine

| IC50 | SMILES |
| --- | --- |
| 1440 µM | Oc1cccc(O)c1 [RESORCINOL] |
| 0.98 µM | CCCCCCc1ccc(O)cc1O [HEXYLRESORCINOL] |
